The nature of data set [1]: Dissolution profile, USP Apparatus 2 (Paddles), conditions of Table 1. In kind it is physicochemical. To be noted: sample containing 20 mg tadalafil, 1000 mL aqueous 0.15 wt % sodium lauryl sulfate and 6 g/L NaH2PO4, pH about 4.5, 37° C., 50 RPM, FIG. 2. Here is the method: Dissolution profiles described herein were determined in a dissolution vessel using a USP Apparatus 2 (Paddles) under the conditions described in Table 1. Samples were analyzed on-line by a UV detector.
A sample of the dry powder P-00464, containing 20 mg tadalafil was collected and its dissolution profile determined according to the conditions in Table 1. The dissolution profile of P00464 was compared with the dissolution profiles of commercial versions of tadalafil tablets (Clalis® 20 mg) and active drug substance with a particle size distribution (PSD) such that the value of d(0.9)=˜(about) 50 μm. The results of dissolution testing are illustrated in FIG. 1.
Samples of P-00464 from Example 1 and samples of tadalafil active material with PSD of d(0.9)=˜(about) 4 μm (designated TAPI AK-2186) were prepared for dissolution testing as described below. The dissolution profiles of the samples were determined according to the conditions in Table 1. The samples were analyzed on-line by UV detection, and were compared. FIG. 2 illustrates the averages of the samples for each drug. […]

For data set [2] the following is noted: organic solvents such as methanol, ethanol, and acetone; 'is understood to be'; cited from earlier work.
For data set [3] the following is noted: cited from earlier work.

Each structure is given as a SMILES string.

Turning to `CN1CC(=O)N2[C@H](c3ccc4c(c3)OCO4)c3[nH]c4ccccc4c3C[C@@H]2C1=O`, the “tadalafil dissolved within 40 minutes” value in data set [1] is reported as “less than 70 wt %”.
Turning to `CN1CC(=O)N2[C@H](c3ccc4c(c3)OCO4)c3[nH]c4ccccc4c3C[C@@H]2C1=O` [tadalafil, (6R-trans)-6-(1,3-benzodioxol-5-yl)-2,3,6,7,12,12a-hexahydro-2-methyl-pyrazino[1′,2′:1,6]pyrido[3,4-]indole-1,4-dione], the “solubility in some organic solvents” value in data set [2] is “only very slightly soluble”. Further, the water solubility result in data set [3] (25° C., reported by U.S. Pat. No. 6,841,167) is reported as “about 2 μg per milliliter”. For the same molecule, the “solubility in water” value in data set [3] ('is understood to be') was “practically insoluble”.

These data come from patent US20100099687A1, “TADALAFIL SOLID COMPOSITES” (Teva Pharmaceutical Industries Ltd., priority 2006, published 2010).
